Experimental data: US6095147A, “Method for photo-altering a biological system to improve biological effect” (The Regents of the University of California, priority 1994, dated 2000)

Assays:
conjunctiva = assay: Posterior lip sclerectomy (filtration surgery) with preoperative SnET2 injection and postoperative laser irradiation; assay type: in vivo, rabbit; details: 665 nm, 100 mW/cm^2
Procedure: (§1) Pharmacokinetics of the photosensitive agent or tin ethyl-etiopurpurin (SnET2) were studied after subconjunctival injections (0,25,50,75 ug; 11 rabbits). Noninvasive measurements were made at 0, 0.5, 1, 2, 3 and 4 hr postinjection using a HeCd based laser fluorescence diagnostic system (excitation-442 nm; detection-670 nm SnET2 fluorescence; tissue autofluorescense-570 nm). SnET2 uptake was determined by an elevated 670/570 nm ratio. Preoperative injections (0, 25, 50 and 75 ug; 8 rabbits) of SnET2 were given and posterior lip sclerectomies were performed after 3-4 hrs followed by post operative laser irradiation (665 nm; 100 mW/cm^2; 30 J/cm^2). […] Self absorption of the fluorescence was present in the higher doses for the conjunctiva. Fluorescence ratios (T=3 hr) were as follows. The fluorescence ratios are shown below in Table 2. The tissue ratios were: conjunctiva/iris: 0 (control)=1.2; 25 ug=63+/-17; 50 ug=54+/-31; 75 ug=4+/-1.2. Conjunctiva/optical axis: 0 (control)=1.4; 25 ug=109+/-37; 50 ug=78+/-10; 75 ug=11+/-2.5.
Some of the animals of the group shown in Table 2 and 3 were treated with 665 nanometers laser light at 100 milliwatt per square centimeter (30 Joules per square centimeter) exposure with 8 millimeter diameter spot three to four hours after the injection of the SnET2 following filtering surgery in the eye.

[1] = Noninvasive laser fluorescence (HeCd) measurement of SnET2 uptake and distribution in ocular tissues after subconjunctival injection; assay type: in vivo, rabbit; details: for Axis Fluorescence Ratio (670 nm/570 nm) / Conjunctiva Fluorescence Ratio (670 nm/570 nm) / Iris Fluorescence Ratio (670 nm/570 nm) / Ratio of Fluorescence (Conjuctiva/Axis) / Ratio of Fluorescence (Conjuctiva/Iris): 3 hr
Procedure: as §1
Noninvasive fluorescent measurements, using a HeCd laser, was made of the SnET2 to determine its uptake and distribution. Exposure of SnET2 with a HeCd laser, excites the tissue at 442 nanometers and detects 670 nanometer florescence for SnET2 and 570 nanometer for tissue autofluorescence. The higher the ratio (670 nm/570 nm), the higher the uptake. Measurements in the conjunctiva compared to the iris and of the conjunctiva as compared to the axis of the eye, namely the pupil, were compared three hours after injection. […] In this case the self-absorption of the 670 nm fluorescence by the SnET2 at such a high local concentration causes the intensity to actually decrease. […] This is also due to self-absorption. Note that for the iris and axis readings the signal does continue to increase with increasing injected dose due to the greater leakage into these areas of the eye with the higher injected doses. This is a negative, unwanted effect and is why the ratios of the conjuntiva/iris and conjuntiva/axis ratios decrease in Table 3. […] The decreased tissue ratios at the higher photosensitizer injection doses indicate lower specificity due to greater leakage from the injection site.

[2] = 25 μg subconjunctival, 3 animals
[3] = 50 μg subconjunctival, 3 animals
[4] = 75 μg subconjunctival, 5 animals

## CCOC(=O)C1=Cc2c3nc(cc4nc(cc5[n-]c(cc6[n-]c2c(C)c6CC)c(C)c5CC)C(C)=C4CC)[C@@H](C)[C@]13CC.[Cl-].[Cl-].[Sn] (racemic) [SnET2, tin ethyl-etiopurpurin]
conjunctiva; 30 J/cm^2
  overall effect of photodynamic therapy on conjunctiva: titratable, localized, transient, post operative avascular conjunctiva
conjunctiva; SnET2 25, 50, 75 ug, 30 J/cm^2, 3-4 hrs after injection
  avascular conjunctiva, post operative: large transient areas of avascular conjunctiva were produced
conjunctiva; at 4 weeks, 30 J/cm^2
  limitation of avascular areas to filtering blebs: limitation of avascular areas to filtering blebs at 4 weeks
[1]; [2]
  Axis Fluorescence Ratio (670 nm/570 nm): 0.26 +/- 0.03
  Conjunctiva Fluorescence Ratio (670 nm/570 nm): 28.27 +/- 10.90
  Iris Fluorescence Ratio (670 nm/570 nm): 0.44 +/- 0.08
  Ratio of Fluorescence (Conjuctiva/Axis): 109+/-37
  Ratio of Fluorescence (Conjuctiva/Iris): 63+/-17
[1]; [3]
  Axis Fluorescence Ratio (670 nm/570 nm): 0.37 +/- 0.05
  Conjunctiva Fluorescence Ratio (670 nm/570 nm): 31.70 +/- 8.60
  Iris Fluorescence Ratio (670 nm/570 nm): 0.65 +/- 0.21
  Ratio of Fluorescence (Conjuctiva/Axis): 78+/-10
  Ratio of Fluorescence (Conjuctiva/Iris): 54+/-31
[1]; [4]
  Axis Fluorescence Ratio (670 nm/570 nm): 1.30 +/- 0.90
  Iris Fluorescence Ratio (670 nm/570 nm): 4.72 +/- 4.94
  Ratio of Fluorescence (Conjuctiva/Axis): 11 +/- 2.5
  Ratio of Fluorescence (Conjuctiva/Iris): 4 +/- 1.2
[1]; 75 μg subconjunctival, 5 animals, self-absorption of fluorescence
  Conjunctiva Fluorescence Ratio (670 nm/570 nm): 15.14 +/- 13.60
[1]; subconjunctival injection
  levels in the iris and optical axis: small, but detectable levels
  time of peak conjunctival fluorescence post injection: 3 h
  uptake and retention at the injection site (conjunctiva): preferentially taken up and preferentially remains in the area of the injection, namely the conjunctiva
